# Where two headings read alike, the source gives them in different places. Residues, ends and D or L forms follow the SMILES beside them.
# How the values were obtained:
# [1] = molecular target: T1, Angiotensin-I converting enzyme (ACE) (from rabbit lungs) (Oryctolagus cuniculus, UniProt P12822); assay: Kinetics of ACE inhibition (Lineweaver-Burk plot); format: biochemical; conditions: HHL 1–10 mM, peptide 1 and 2 mg/mL
# T1 construct: Angiotensin-I converting enzyme (ACE) (from rabbit lungs); purchased Sigma-Aldrich Co. (St. Louis, MO, United States); host or cells: rabbit lung tissue
# T1 sequence (P12822 34-1310): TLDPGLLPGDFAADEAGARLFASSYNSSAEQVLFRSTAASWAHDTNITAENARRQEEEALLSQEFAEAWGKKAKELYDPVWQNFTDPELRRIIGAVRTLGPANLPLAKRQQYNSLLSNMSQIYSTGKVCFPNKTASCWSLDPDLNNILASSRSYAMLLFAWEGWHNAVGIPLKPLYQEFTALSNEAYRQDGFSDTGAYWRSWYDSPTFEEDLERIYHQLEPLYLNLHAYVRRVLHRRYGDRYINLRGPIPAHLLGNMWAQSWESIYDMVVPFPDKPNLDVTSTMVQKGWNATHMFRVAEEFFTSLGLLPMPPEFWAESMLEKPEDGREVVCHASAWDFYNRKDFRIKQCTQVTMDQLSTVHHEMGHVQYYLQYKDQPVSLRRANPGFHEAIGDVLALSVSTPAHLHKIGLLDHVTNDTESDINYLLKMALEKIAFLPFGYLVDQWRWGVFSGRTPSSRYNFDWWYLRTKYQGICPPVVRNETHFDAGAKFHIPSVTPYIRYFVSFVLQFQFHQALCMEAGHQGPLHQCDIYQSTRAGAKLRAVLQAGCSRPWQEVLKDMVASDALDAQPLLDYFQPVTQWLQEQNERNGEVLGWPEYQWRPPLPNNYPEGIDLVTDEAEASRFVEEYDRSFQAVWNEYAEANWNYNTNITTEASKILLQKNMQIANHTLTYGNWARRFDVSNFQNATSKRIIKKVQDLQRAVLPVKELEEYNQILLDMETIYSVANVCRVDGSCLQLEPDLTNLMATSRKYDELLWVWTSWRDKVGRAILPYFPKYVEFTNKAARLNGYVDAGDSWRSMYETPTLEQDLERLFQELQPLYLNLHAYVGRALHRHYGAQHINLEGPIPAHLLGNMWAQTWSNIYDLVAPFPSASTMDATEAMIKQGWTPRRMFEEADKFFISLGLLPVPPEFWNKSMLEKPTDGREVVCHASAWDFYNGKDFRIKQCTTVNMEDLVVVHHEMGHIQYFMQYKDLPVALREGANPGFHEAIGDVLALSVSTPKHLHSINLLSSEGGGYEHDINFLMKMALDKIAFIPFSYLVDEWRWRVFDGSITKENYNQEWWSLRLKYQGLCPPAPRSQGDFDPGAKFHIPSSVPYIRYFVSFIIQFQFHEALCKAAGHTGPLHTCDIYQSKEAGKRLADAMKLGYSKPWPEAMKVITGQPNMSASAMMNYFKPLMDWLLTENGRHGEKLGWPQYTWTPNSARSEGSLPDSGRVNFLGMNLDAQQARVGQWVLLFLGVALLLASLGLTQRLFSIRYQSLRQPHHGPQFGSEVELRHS
# Description: To explore the inhibition pattern of the peptide and clarify the kinetics of ACEI activity, the Lineweaver-Burk plot was employed in our study. The various concentrations of the HHL solution were 1, 2, 5, 8, and 10 mM, and the concentration of synthesized peptide was set as 2 mg/mL. Various concentrations of HHL and peptide were incubated in ACE solutions. The Y-intercept of the Lineweaver-Burk plot represents the reciprocal of the maximum velocity (Vmax^–1), while the X-intercept is the reciprocal of the Michaelis-Menten constant (Km^–1).
# [2] = molecular target: T1, Angiotensin-I converting enzyme (ACE) (from rabbit lungs); assay: ACE-inhibitory activity assay (HHL substrate, HPLC of hippuric acid); format: biochemical; conditions: peptide 2 mg/mL, HHL 5 mM, ACE 0.1 U/mL, 37°C, 5 min pre-incubation, 60 min, triplicate
# [3] = molecular target: T1, Angiotensin-I converting enzyme (ACE) (from rabbit lungs); assay: as above; format: biochemical
# Description: The ACEI activity of the synthesized peptides was measured following the reported method with a minor modification ([22]). The experiment was carried out in a 1.5 mL PE tube. Briefly, for each assay, 20 μL of the inhibitor (1 mg/ml) was mixed with 120 μL of the HHL solution in the concentration of 5 mM. The mixture was first preincubated at a constant temperature of 37°C for 5 min, 10 μL ACE (0.1 U/mL) was then added to start the reaction, and to incubate at 37°C for 60 min. In the end, 150 μl HCl (1M) was used to terminate the reaction. Meanwhile, the inhibitor solution was replaced with 20 μL boric acid buffer solution (0.1 mol/L, pH 7.3, containing 0.3 mol/L NaCl) as a blank control group. The HPLC system was equipped with a ZORBAX Eclipse SB-C18 column (5 μm particle size, 4.6 × 150 mm). To analyze the releasing amount of hippuric acid under the action of ACE, the elution was conducted in 25% Mobile Phase A (ACN) and 75% Mobile Phase B (0.05% TFA in ultrapure water) for 25 min with a flow rate of 0.8 mL/min. The ACE inhibitory activity percentage (%) was calculated based on the equation below:
# ACEinhibitionrate(%)=(B-S)/B×100
# Where B and S are the chromatographic peak areas of the control group and the sample tested, respectively. IC50 is the inhibitor concentration capable of inhibiting 50% of ACE activity under the described experimental conditions, which was estimated by non-linear regression of ACE inhibition (%) against different inhibitor concentrations by using SPSS software.
# [4] = system: SHRs (spontaneously hypertensive rats); assay: Blood pressure of SHRs after single intragastric administration (tail-cuff); format: in vivo, rat
# Description: Male SHRs aged 10–12 weeks old, body weight (BW) of 220–250 g, and blood pressure over 180 mmHg were purchased from Trophic Animal Feed High-tech Co. Ltd., (Nantong, China). Six SHRs were administrated individually in each cage with the stable room temperature (25 ± 0.5°C), the humidity of 55 ± 5%, and a 12-h light to12-h dark cycle. Food and water were freely accessed. Rats were accustomed to the above environment for 2 weeks before the experiment. […] The SHRs were randomly grouped in 3. Rats were gavage administered with peptide at 15 mg/kg⋅BW/day in the experiment group. […] All rats were gavaged with their daily dose at 8 am, and the blood pressure was measured every 3 h by 4 times, which was using the tail-cuff method ([27]). Briefly, rats were covered with a fixed device but could let their tail leak out (MK2000ST, Muromachi Kikai Co., Ltd., Japan). A cuff was curled around the tail to measure the diastolic blood pressure (DBP) and systolic blood pressure (SBP).
# ACE = conditions: cited from earlier work
# Source text: The inhibitory patterns of the ACEI peptides mainly contain competitive inhibition, non-competitive inhibition, and mixed inhibition according to their various structures. […] Non-competitive A ... || The Lineweaver-Burk plots were employed to elucidate the ACE inhibition kinetic of the synthetic peptide […], shown in Figure 2B. Whereas the Vmax was the same when the concentrations of the inhibitory peptide increased, the Km/Vmax value increased. […] Among all the ACE inhibition patter ...
# [5] = system: Ren1 / Adrb3 expression in SHRs; design: method as in 2 sources, one per row (each row's own in cited_ref): ref [45] = [45]; PMID 24404915; doi:10.1021/jf405189y; 45. Yu ZP Yin YG Zhao WZ Chen F Liu JB . Antihypertensive effect of angiotensin-converting enzyme inhibitory peptide RVPSL on spontaneously hypertensive rats by regulating gene expression of the renin ||| ref [46] = [46]; PMID 26517713; doi:10.1371/journal.pone.0142016; 46. Feng J Dai Z Zhang Y Meng L Ye J Ma X . Alteration of gene expression profile in kidney of spontaneously hypertensive rats treated with protein hydrolysate of blue mussel ( Mytilus edulis ) by DNA; conditions: SHRs orally administered 50 mg/kg; ref [45]; cited from earlier work
# [6] = peptide 1 mg/mL, HHL 5 mM, ACE 0.1 U/mL, 37°C, 5 min pre-incubation, 60 min, HPLC of hippuric acid, triplicate
# [7] = clinical drugs for hypertension, ref [30]
# [8] = food-derived peptides, ref [41], [42]
# [9] = food-derived peptides, ref [32], [37]
# [10] = food-derived peptides, ref [43], [44]
ACE inhibition rate (%) Concentration (2 mg/mL) [2],"ACE inhibition rate (%) Concentration (1 mg/mL) [3, 6]",Compound,ACE inhibitory pattern (ACE; [9]),also measured
29.3266%,14.2857%,CC(C)C[C@H](NC(=O)[C@H](Cc1ccc(O)cc1)NC(=O)[C@H](CCC(=O)O)NC(=O)[C@H](C)N)C(=O)N[C@@H](CS)C(=O)N[C@@H](CCC(=O)O)C(=O)N[C@@H](C)C(=O)N[C@@H](CS)C(=O)O (H-AEYLCEAC-OH),,"Km/Vmax value with increasing inhibitory peptide concentration [1]: increased; inhibition at 2000 µg/mL ([2]; read-out: ACE inhibition rate (%) Concentration (2 mg/mL)): 29.3%; inhibition at 1000 µg/mL ([3]; peptide 1 mg/mL, HHL 5 mM, ACE 0.1 U/mL, 37°C, 5 min pre-incubation, 60 min, HPLC of hippuric acid, triplicate, read-out: ACE inhibition rate (%) Concentration (1 mg/mL)): 14.3%; IC50 ([3]; peptide 0.2–15 mg/mL, HPLC method, regression y = −0.0073x^2 + 0.1616x −0.0105 (R^2 = 0.99), read-out: IC50 of ACE inhibition): 4.29 mM"
,,C[C@H](CS)C(=O)N1CCC[C@H]1C(=O)O [captopril],,"blood pressure reduction in rats with hypertension, overall comparison ([4]; all data of single and 4-week administration in SHRs): better than AEYLCEAC; SBP after a single intragastric administration ([4]; male SHRs, gavage, peptide 15 mg/kg BW, captopril 10 mg/kg BW, 3 to 12 h, vs water control, p < 0.01): SBP in control group was significantly higher than that in the peptide group and positive group"
,,CCOC(=O)[C@H](CCc1ccccc1)N[C@@H](C)C(=O)N1CCC[C@H]1C(=O)O [enalapril],,ACE inhibitory pattern (ACE; [7]): competitive inhibitors
,,NCCCC[C@H](N[C@@H](CCc1ccccc1)C(=O)O)C(=O)N1CCC[C@H]1C(=O)O [lisinopril],,ACE inhibitory pattern (ACE; [7]): competitive inhibitors
,,ALVY [from Gac Seed Protein Hydrolysates],,ACE inhibitory pattern (ACE; [8]): competitive
,,AVKVL [derived from hazelnut],Non-competitive,
,,EPNGLLLPQY [from walnut protein],,ACE inhibitory pattern (ACE; [10]): mixed pattern
,,ETSGMKPTEL [isolated from longan seeds],Non-competitive,
,,ISSMGILVCL [isolated from longan seeds],Non-competitive,
13.9971%,3.6918%,LDVSWASD,,
–5.7205%,–1.1236%,LSSNLHG,,
,,NMAINPSKENLCSTFCK [isolated from casein hydrolysates],,ACE inhibitory pattern (ACE; [10]): mixed pattern
,,QAGLSPVR [from tilapia skin gelatin],Non-competitive,
–5.0688%,–3.8523%,QEVVMGEC,,
,,QLVP [from Mycelia of Ganoderma Lucidum],,ACE inhibitory pattern (ACE; [10]): mixed pattern
–4.3447%,–13.9647%,RSNDGPI,,
,,RVPSL [hydrolyzed from egg white protein],,Ren1 expression [5]: downregulated
,,SSYYPFK [from naked oat globulin hydrolysates],,ACE inhibitory pattern (ACE; [8]): competitive
,,TLVGR [derived from hazelnut],Non-competitive,
7.9218%,–4.8796%,TNEVEGPS,,
,,VGLPNSR [from tilapia skin gelatin],Non-competitive,
4.7219%,1.6051%,VILGDADLP,,
,,YLVR [derived from hazelnut],Non-competitive,

# From article PMC9445672, “A novel angiotensin-I-converting enzyme inhibitory peptide from oyster: Simulated gastro-intestinal digestion, molecular docking, inhibition kinetics and antihypertensive effects in rats” (Frontiers in Nutrition, 2022)
